Laboratory results taken from paper PMC6006164, “Natural cyclopeptide RA-V inhibits the NF-κB signaling pathway by targeting TAK1” (Cell Death & Disease, 2018).

Columns and labels:
NF-κB activation = assay: Bioluminescence imaging of NF-κB-luciferase transgenic mice in the endotoxin shock model; assay type: in vivo; conditions: RA-V micelles 0.25 mg/kg i.v. 52, 28, 4 h before LPS 10 mg/kg i.p.; n = 4; particularly 2 h after LPS
Method: Fig. 2 RA-V prevents endotoxic shock and inhibits NF-κB activation in vivo. a–c RA-V prevents endotoxic shock in vivo. Mice (n = 6 per group) were intravenously injected with RA-V micelles (0.25 mg/kg body weight) or control micelles 52, 28, and 4 h before an intraperitoneal injection of LPS (10 mg/kg). One hour later, the relative levels of IL-6 and TNF-α mRNAs in the liver were assessed by quantitative RT-PCR (a), the serum IL-6 and TNF-α levels were quantified by ELISA (b), and the expression of p65 and IκBα phosphorylation in the liver were measured by immunoblot analysis c. d RA-V improved animal survival. Mice (n = 20 per group) were intravenously injected with RA-V micelles (0.25 mg/kg body weight) or control micelles 52, 28, and 4 h before intraperitoneal injection of LPS (20 mg/kg). Animal survival was recorded in 2–3 hours intervals. e RA-V inhibits NF-κB activation in vivo. […] The bioluminescent signals from all of the mice were detected and quantified. […]
The bioluminescence imaging of the NF-κB-luciferase transgenic mice was performed using a Xenogen IVIS Spectrum in vivo imaging system (Caliper Life Sciences). […] After 15 min, the in vivo bioluminescence was measured at the indicated times. The bioluminescent signals from all of the mice were detected and quantified.

HepG2 xenograft tumors = assay: HepG2 xenograft in nude mice; assay type: in vivo, female athymic nude BALB/c mice
Method: Fig. 7 RA-V inhibits tumor growth and the expression of NF-κB target genes in a nude xenograft model. a–d Inhibition of the growth of HCT116 and HepG2 xenograft tumors by RA-V. Female athymic nude BALB/c mice bearing HCT116 (n = 8) or HepG2 (n = 7) xenograft tumors were intravenously injected with various concentrations of RA-V micelles or control micelles every other day. 5-FU (10 mg/kg) group as positive control. Effects of RA-V on the growth curves of subcutaneoue xenografts of HCT116 (a) and HepG2 (b) and effects on the tumor weight in the HCT116 (c) and HepG2 (d) models. e–f Tumors removed were photographed. g–h The expression of the NF-κB target genes, IL-8, MCP-1, and CXCL-1, in HCT116 (g) and HepG2 (h) tumor tissue from vehicle- and various concentrations of RA-V-treated group was determined by quantitative RT-PCR and normalized to GADPH expression. *, p < 0.05; **, p < 0.01; ***, p < 0.001
In total, 2 × 10^6 HCT116 or 3 × 10^6 HepG2 cells were subcutaneously injected into the right dorsal flank of 6- to 8-week-old female athymic nude BALB/c mice. After tumor volumes reached 100 mm^3, the tumor-bearing mice were randomly divided into several groups. The mice bearing HCT116 (n = 8) or HepG2 xenograft tumors (n = 7) were received the intravenous injection of vehicle micelles or various concentrations of RA-V micelles every other day. 5-FU (10 mg/kg) group as positive control. Body weights and tumor volumes were recorded every other day. Tumor volumes were calculated using the following formula: tumor volume (mm^3) = 0.52 × length × width^2. At the end of the experiments, the mice were killed. Tumor xenografts of each mouse were removed and weighed. Part of each tumor tissue was stored at liquid nitrogen for quantitative RT-PCR analysis. […] Serum alanine transaminase(ALT), aspartate transaminase(AST), and creatine kinase(CK) were determined using relevant kits (Nanjing Jiancheng) according to the manufacturer’s specific instructions.

[1] = HepG2, n = 7, RA-V micelles i.v. every other day, vs control

RA-V
NF-κB activation, in vivo bioluminescence (NF-κB activation): inhibited NF-κB activation
tumor growth rate (tumor volume) (HepG2 xenograft tumors; [1]): significantly reduced
tumor weight (HepG2 xenograft tumors; [1]): obviously lower
expression of IL-8, MCP-1, and CXCL-1 in tumor tissue (HepG2 xenograft tumors; HepG2 xenograft, quantitative RT-PCR): remarkable decreased
